Measured values taken from paper PMC2661907, “The Proteasome Is a Molecular Target of Environmental Toxic Organotins” (Environmental Health Perspectives, 2008).

Molecular target: T1, 20S proteasome (chymotrypsin-like activity, β5 subunit) (Oryctolagus cuniculus, UniProt G1T4Q9)
T1 construct: gene PSMB5; purified rabbit 20S proteasome; with other subunits of the 20S proteasome
T1 sequence (G1T4Q9 1-263): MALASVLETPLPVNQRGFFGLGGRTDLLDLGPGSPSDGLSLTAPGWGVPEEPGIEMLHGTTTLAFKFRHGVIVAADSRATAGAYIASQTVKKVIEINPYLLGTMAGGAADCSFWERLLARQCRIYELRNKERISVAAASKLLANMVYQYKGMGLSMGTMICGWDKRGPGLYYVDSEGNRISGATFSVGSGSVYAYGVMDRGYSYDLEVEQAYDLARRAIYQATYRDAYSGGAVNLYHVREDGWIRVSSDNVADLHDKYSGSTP
Experiment: fluorogenic peptide CT-like activity assay on purified
Type: biochemical

CCC[CH2][Sn]([Cl])([CH2]CCC)[CH2]CCC [TBT, tributyltin chloride]
IC50: 15.6 µM
